Results taken from ChEMBL document CHEMBL1201862, “PubChem BioAssay data set” (2004).
Active and inactive are the calls of the source.

Assays:
[1] = A549 cell cytotoxicity, dose response, cytotoxicity control, plate reader, cherry-pick, antagonist series (AID 743412); format: functional, cell-based
[2] = toxicity toward HepG2 liver cells – cell-based, plate reader, cherry-pick, antagonist series, cytotoxicity control, dose response (AID 743416); format: functional
[3] = viability loss in HEK293 cells – cell-based, plate reader, cherry-picked samples, cytotoxicity control, dose response (AID 743446); format: functional
[4] = blockers of HIV-1 ZM109 envelope-driven cell-cell fusion – HeLa effector, CEM target cells, luciferase, cherry-pick, dose response (AID 652058); format: functional, cell-based;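 note: luciferase signal from HIV-1 Env mediated cell-cell fusion of effector and target cells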
[5] = blockers of HIV-1 envelope-mediated cell-cell fusion – cherry-pick, dose response (AID 652057); format: functional, cell-based
[6] = HIV-1 AD8 envelope cell-cell fusion blockers – cherry-pick, dose response (AID 652062); format: functional, cell-based;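 note: luciferase signal from cell-cell fusion driven by HIV-1 clade B AD8 Env; potency is for inhibitors of fusion seen as a drop in luminescence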
Prothrombin = Prothrombin (Homo sapiens, UniProt P00734); assay: Thrombin 1536 HTS Dose Response Confirmation. [Related pubchem assays: 1046 (Thrombin 1536 HTS; hits were confirmed in this assay)]; format: functional
[7] = off-target signal loss in HeLa-CEM21 co-culture – HeLa F-luc CTL cells, cherry-picked, counter-screen for HIV-1 Env fusion inhibitor project, dose response (AID 652040); format: functional, cell-based;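 note: potency for signal decrease marking cytotoxic or nonspecific inhibition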
[8] = Counterscreen for inhibitors of Trypanosoma brucei methionyl tRNA synthetase (MetRS): Luminescence-based cell-based high throughput dose response assay to identify compounds that are cytotoxic to Jurkat human T lymphocyte cells.; format: functional
[9] = target: T1, Methionyl-tRNA synthetase, putative (Trypanosoma brucei brucei, UniProt Q38C91); format: functional, Trypanosoma brucei brucei strain 927/4 GUTat10.1
T1 sequence (Q38C91 whole entry): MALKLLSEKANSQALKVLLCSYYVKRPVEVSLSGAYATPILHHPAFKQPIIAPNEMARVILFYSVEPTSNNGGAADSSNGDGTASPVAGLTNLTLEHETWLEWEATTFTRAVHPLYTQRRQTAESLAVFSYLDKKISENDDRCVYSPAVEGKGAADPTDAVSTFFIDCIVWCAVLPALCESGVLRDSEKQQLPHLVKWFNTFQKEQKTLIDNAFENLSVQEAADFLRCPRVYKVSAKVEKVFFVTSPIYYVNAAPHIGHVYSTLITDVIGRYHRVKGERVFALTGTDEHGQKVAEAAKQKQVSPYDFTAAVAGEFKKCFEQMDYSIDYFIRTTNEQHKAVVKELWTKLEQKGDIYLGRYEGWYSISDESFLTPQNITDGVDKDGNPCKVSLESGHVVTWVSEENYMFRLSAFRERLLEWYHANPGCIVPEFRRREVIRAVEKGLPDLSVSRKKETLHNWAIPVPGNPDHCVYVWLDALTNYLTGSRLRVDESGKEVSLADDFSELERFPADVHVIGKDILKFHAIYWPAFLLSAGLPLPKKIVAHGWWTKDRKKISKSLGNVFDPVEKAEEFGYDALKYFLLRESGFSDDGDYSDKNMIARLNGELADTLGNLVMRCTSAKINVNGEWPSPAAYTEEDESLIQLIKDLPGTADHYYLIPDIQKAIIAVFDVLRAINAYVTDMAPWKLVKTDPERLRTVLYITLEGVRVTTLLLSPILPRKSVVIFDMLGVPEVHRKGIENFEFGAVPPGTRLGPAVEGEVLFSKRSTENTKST

[10] = target: T1, Methionyl-tRNA synthetase, putative; format: functional, Trypanosoma brucei brucei strain 927/4 GUTat10.1; remark: listed apart in the source
[11] = Luminescence Cell-Based Dose Response HTS to Identify Activators of Luciferase Translation or Activity in H4 […] Cells. [Related pubchem assays: 1829 (Project Summary), 1814 (Primary HTS)]; format: functional
H4 = assay: Luminescence Cell-Based Dose Response HTS to Identify Activators of 5'UTR Stem-Loop Driven Prion Protein mRNA Translation in H4 Neuroglioblastoma Cells. [Related pubchem assays: 1829 (Project Summary), 1814 (Primary HTS)]; format: functional; conditions: Homo sapiens
Vero = assay: cells; format: functional; conditions: Chlorocebus sabaeus
[12] = Luminescence Cell-Based Dose Confirmation HTS to Identify Activators of 5'UTR Stem-Loop Driven Alpha-Synuclein mRNA Translation in H4 Neuroglioblastoma Cells. [Related pubchem assays: 1829 (Project Summary), 1814 (Primary HTS)]; format: functional
[13] = Luminescence Cell-Based Dose Retest to Confirm Inhibitors of Cancer Stem Cells. [Related pubchem assays (depositor defined):AID2717, AID2721]; format: functional; conditions: Homo sapiens
[14] = target: T2, DNA repair protein RAD52 homolog (Homo sapiens, UniProt P43351); format: functional, biochemical
T2 sequence (P43351 whole entry): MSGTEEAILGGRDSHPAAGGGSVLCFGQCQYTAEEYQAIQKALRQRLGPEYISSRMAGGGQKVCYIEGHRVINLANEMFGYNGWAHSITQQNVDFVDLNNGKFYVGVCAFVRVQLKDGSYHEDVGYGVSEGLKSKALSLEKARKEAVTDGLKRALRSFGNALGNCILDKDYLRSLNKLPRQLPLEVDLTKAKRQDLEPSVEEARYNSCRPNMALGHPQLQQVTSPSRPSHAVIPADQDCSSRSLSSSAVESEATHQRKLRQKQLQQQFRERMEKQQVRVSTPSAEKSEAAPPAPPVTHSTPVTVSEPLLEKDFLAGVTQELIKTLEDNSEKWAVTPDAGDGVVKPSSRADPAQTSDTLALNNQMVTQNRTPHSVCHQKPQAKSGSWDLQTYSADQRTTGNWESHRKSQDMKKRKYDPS

cells [15] = format: functional, cell-based
cells [16] = format: functional, cell-based; remark: listed apart in the source
Large T antigen = Large T antigen (Simian virus 40, UniProt P03070); format: functional, Betapolyomavirus macacae;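 note: Confirmatory-stage PubChem screen for compounds that inhibit SV40 T antigen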
Sequence of Large T antigen (P03070 whole entry): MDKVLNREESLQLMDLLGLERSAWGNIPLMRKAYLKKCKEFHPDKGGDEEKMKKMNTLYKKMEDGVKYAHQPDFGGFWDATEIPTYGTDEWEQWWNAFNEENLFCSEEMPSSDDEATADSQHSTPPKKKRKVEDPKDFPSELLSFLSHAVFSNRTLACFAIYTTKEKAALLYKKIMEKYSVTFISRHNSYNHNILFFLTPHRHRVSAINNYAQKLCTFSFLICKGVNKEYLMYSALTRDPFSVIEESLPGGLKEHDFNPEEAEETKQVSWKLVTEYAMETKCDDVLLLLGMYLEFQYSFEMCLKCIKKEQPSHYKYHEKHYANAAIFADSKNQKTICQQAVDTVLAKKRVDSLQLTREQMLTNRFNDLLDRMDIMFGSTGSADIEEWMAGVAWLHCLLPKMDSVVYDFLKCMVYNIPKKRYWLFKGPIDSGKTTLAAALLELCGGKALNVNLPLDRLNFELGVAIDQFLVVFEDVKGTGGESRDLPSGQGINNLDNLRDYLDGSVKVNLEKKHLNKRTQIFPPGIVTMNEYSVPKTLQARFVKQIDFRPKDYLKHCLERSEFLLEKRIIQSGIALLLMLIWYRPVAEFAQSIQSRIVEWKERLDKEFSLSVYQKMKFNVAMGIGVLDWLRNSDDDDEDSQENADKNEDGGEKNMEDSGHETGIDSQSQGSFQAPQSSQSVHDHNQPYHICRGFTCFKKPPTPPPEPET

**Q.** For `COc1ccccc1N1CCN(C(=O)c2sc3nc(-c4ccc(F)cc4)cn3c2C)CC1`, which AC50 [1] is on record?
**A.** The AC50 was > 52 µM (inactive).

**Q.** What about the AC50 [2] of the same compound?
**A.** The AC50 was 43.3 µM (active).

**Q.** And the AC50 [3]?
**A.** Its AC50 is 37.1 µM (active).

**Q.** With `C[C@H](CO)N1C[C@H](C)[C@H](CN(C)S(=O)(=O)c2ccccc2F)Oc2ncc(/C=C/c3ccccc3)cc2C1=O` as the compound, how does the AC50 [4] read?
**A.** The AC50 was 10.2 µM (active).

**Q.** And the AC50 [5]?
**A.** Its AC50 is 3.51 µM (active).

**Q.** What about the AC50 [6] of the same compound?
**A.** The AC50 was 10.1 µM (active).

**Q.** With `Cc1cc(C(=O)CSc2nnnn2C)c(C)n1-c1cccc(F)c1` as the compound, how does the IC50 (Prothrombin) read?
**A.** The IC50 was > 50 µM (not active).

**Q.** What does the source list for `Cc1ccccc1CCN(C(=O)c1csnn1)C(C(=O)NC1CCCC1)c1ccncc1` (configuration not stated)?
**A.** AC50 [4]: 0.742 µM (active); AC50 [5]: 0.548 µM (active); AC50 [6]: < 0.26 µM (active); AC50 [7]: 1.13 µM (active)

**Q.** What does the source list for `OC(c1cc(F)cc(Cl)c1)c1nc(-c2ccc(Cl)cc2)c[nH]1` (configuration not stated)?
**A.** IC50 [8]: 56.3 µM (inactive); IC50 [9]: 6.73 µM (active); IC50 [10]: 15 µM (inactive)

**Q.** For `CC(C)N(Cc1nc(-c2ccccc2)no1)C(=O)CN(C)S(=O)(=O)c1ccc(Br)cc1`, which AC50 [5] is on record?
**A.** The AC50 was 49.9 µM (active).

**Q.** What about the AC50 [6] of the same compound?
**A.** The AC50 was 20.1 µM (active).

**Q.** What about the AC50 [7] of the same compound?
**A.** The AC50 was 60.4 µM (active).

**Q.** For `Sc1nnc(COc2ccccc2)n1/N=C/C(Cl)=C/c1ccccc1`, which EC50 [11] is on record?
**A.** Its EC50 is 12.6 µM (active).

**Q.** And the EC50 (H4)?
**A.** The EC50 was > 120 µM (not active).

**Q.** And the CC50 (Vero)?
**A.** Its CC50 is > 25 µM (active).

**Q.** What about the EC50 [12] of the same compound?
**A.** The EC50 was 6.85 µM (active).

**Q.** And the AC50 [13]?
**A.** Its AC50 is 2.32 µM (active).

**Q.** For `NCc1cc2c3c(c1)CCCN3CCC2`, which AC50 [14] is on record?
**A.** Its AC50 is 1.92 µM (active).

**Q.** What does the source list for `CC(Cc1ccccc1)NC(=O)/C=C/C(=O)O` (configuration not stated)?
**A.** EC50 (cells [15]): > 29.9 µM (inactive); IC50 (cells [16]): > 29.9 µM (inactive)

**Q.** What does the source list for `COc1cccc(S(=O)(=O)N(C)C[C@@H]2Oc3cc(C#CCC(C)C)ccc3S(=O)(=O)N([C@@H](C)CO)C[C@@H]2C)c1`?
**A.** AC50 [4]: 46.1 µM (active); AC50 [5]: 20 µM (active); AC50 [6]: 25.7 µM (active)

**Q.** Which results are given for `CCN1C(=O)C(CC(=O)Nc2ccc(OC)cc2)N(CCc2ccc(F)cc2)C1=S` (configuration not stated)?
**A.** IC50 [8]: 61.1 µM (inactive); IC50 [9]: 6.2 µM (active); IC50 [10]: 11.4 µM (inactive)

**Q.** Which IC50 (Prothrombin) does the source give for `C#CCSc1nncn1C(=O)/C=C/c1ccccc1` here?
**A.** The IC50 was 0.294 µM (active).

**Q.** Which IC50 (Prothrombin) does the source give for `COc1ccc(C2C=C(c3ccc(Br)cc3)Nc3nc(N4C(=O)CCC4=O)nn32)cc1` (configuration not stated) here?
**A.** The IC50 was > 50 µM (not active).

**Q.** With `O=C(Nc1ccc(O)cc1)c1ccc(NC(=O)C2CCCO2)cc1` (configuration not stated) as the compound, how does the IC50 (Large T antigen) read?
**A.** Its IC50 is 11.1 µM (active).

**Q.** With `COc1ccccc1NC(=O)N1CCCC1C(=O)NC1CCCCC1` (configuration not stated) as the compound, how does the IC50 (Prothrombin) read?
**A.** The IC50 was > 50 µM (not active).

**Q.** Which AC50 [6] does the source give for `O=C(Nc1ccc(CN2CCS(=O)(=O)CC2)cc1)c1ccc(C(F)(F)F)cc1` here?
**A.** The AC50 was 3.22 µM (active).

**Q.** What about the AC50 [7] of the same compound?
**A.** The AC50 was > 70 µM (inactive).
